{"source": "paper PMC7419507", "about": "“In vitro Cas9-assisted editing of modular polyketide synthase genes to produce desired natural product derivatives” (Nature Communications, 2020)", "key": {"[1]": {"system": "T lymphoma Jurkat cells", "assay": "Cytotoxicity assay (CellTiter-Glo, 72 h), Jurkat", "format": "cell-based", "details": "raw data (replicates)", "outline": "(§1)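 1000 cells/well; 4 h settle, then 2-fold serial dilutions (0.5% DMSO final), 72 h, 37 °C/5% CO2. Read-out: CellTiter-Glo luminescence. Media: RPMI1640 + 10% FBS (Jurkat, MESO-1; Jurkat also Glutamax), DMEM + 10% FBS (SKOV-3).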"}, "[2]": {"assay": "Cytotoxicity assay (CellTiter-Glo, 72 h), Jurkat", "format": "cell-based", "details": "human, Jurkat cells (T lymphoma)", "outline": "as §1"}, "[3]": {"system": "human ovarian adenocarcinoma SKOV-3 cells", "assay": "Cytotoxicity assay (CellTiter-Glo, 72 h), SKOV-3", "format": "cell-based", "details": "raw replicate data", "outline": "as §1"}, "[4]": {"assay": "Cytotoxicity assay (CellTiter-Glo, 72 h), SKOV-3", "format": "cell-based, human", "details": "human, SKOV-3 cells (ovarian adenocarcinoma), SKOV-3 cells, 72 h; read-out: Plateau level of cell viability in the dose-response curve", "outline": "as §1"}}, "note": "Values joined by “and” are separate entries in the source; they are usually repeats but may differ in a detail not shown here. Equal values may be shown once."}
{"smiles": "COC1CC2CCC(C)C(O)(O2)C(=O)C(=O)N2CCCCC2C(=O)OC(C(C)CC2CCC(O)C(OC)C2)CCC(C)C=C(C)C(O)C(OC)C(=O)C(C)CC(C)C=CC=CC=C1C", "note": "(stereo not shown) [Compound 16, 32-desketorapamycin]", "values": [{"measurement": "Jurkat viability (%)", "setting": "[1]; conc 9.53674e-5 uM", "result": "101.4% and 98.2%"}, {"measurement": "Jurkat viability (%)", "setting": "[1]; conc 0.000190735 uM", "result": "92.4% and 84.6%"}, {"measurement": "Jurkat viability (%)", "setting": "[1]; conc 0.00038147 uM", "result": "90.4% and 75.5%"}, {"measurement": "Jurkat viability (%)", "setting": "[1]; conc 0.000762939 uM", "result": "69.2% and 63.8%"}, {"measurement": "Jurkat viability (%)", "setting": "[1]; conc 0.00152588 uM", "result": "59.9% and 53.6%"}, {"measurement": "Jurkat viability (%)", "setting": "[1]; conc 0.00305176 uM", "result": "41.7% and 44.0%"}, {"measurement": "Jurkat viability (%)", "setting": "[1]; conc 0.00610352 uM", "result": "34.2% and 31.7%"}, {"measurement": "Jurkat viability (%)", "setting": "[1]; conc 0.012207 uM", "result": "27.6% and 27.9%"}, {"measurement": "Jurkat viability (%)", "setting": "[1]; conc 0.0244141 uM", "result": "27.8% and 26.9%"}, {"measurement": "Jurkat viability (%)", "setting": "[1]; conc 0.0488281 uM", "result": "23.6% and 25.9%"}, {"measurement": "Jurkat viability (%)", "setting": "[1]; conc 0.0976562 uM", "result": 24.4, "unit": "%"}, {"measurement": "Jurkat viability (%)", "setting": "[1]; conc 0.195312 uM", "result": "26.3% and 22.8%"}, {"measurement": "Jurkat viability (%)", "setting": "[1]; conc 0.390625 uM", "result": 23.3, "unit": "%"}, {"measurement": "Jurkat viability (%)", "setting": "[1]; conc 0.78125 uM", "result": "22.7% and 23.1%"}, {"measurement": "Jurkat viability (%)", "setting": "[1]; conc 1.5625 uM", "result": 22.0, "unit": "%"}, {"measurement": "Jurkat viability (%)", "setting": "[1]; conc 3.125 uM", "result": "23.1% and 21.1%"}, {"measurement": "Jurkat viability (%)", "setting": "[1]; conc 6.25 uM", "result": "20.5% and 21.0%"}, {"measurement": "Jurkat viability (%)", "setting": "[1]; conc 12.5 uM", "result": "14.7% and 14.4%"}, {"measurement": "Jurkat viability (%)", "setting": "[1]; conc 25 uM", "result": "2.4% and 2.3%"}, {"measurement": "Jurkat viability (%)", "setting": "[1]; conc 50 uM", "result": "0.267% and 0.233%"}, {"measurement": "viability at 72 h", "setting": "[2]; 72 h, read-out: Plateau level of cell viability in the dose-response curve", "result": "~25", "unit": "%"}, {"measurement": "viability at 72 h, 9.53674e-05 uM", "setting": "[2]; conc 9.53674e-5 uM, raw data (replicates)", "result": 104, "unit": "%"}, {"measurement": "viability at 72 h, 0.000190735 uM", "setting": "[2]; conc 0.000190735 uM, raw data (replicates)", "result": 86.9, "unit": "%"}, {"measurement": "viability at 72 h, 0.00038147 uM", "setting": "[2]; conc 0.00038147 uM, raw data (replicates)", "result": 91.3, "unit": "%"}, {"measurement": "viability at 72 h, 0.000762939 uM", "setting": "[2]; conc 0.000762939 uM, raw data (replicates)", "result": 67.7, "unit": "%"}, {"measurement": "viability at 72 h, 0.00152588 uM", "setting": "[2]; conc 0.00152588 uM, raw data (replicates)", "result": 56.5, "unit": "%"}, {"measurement": "viability at 72 h, 0.00305176 uM", "setting": "[2]; conc 0.00305176 uM, raw data (replicates)", "result": 40.9, "unit": "%"}, {"measurement": "viability at 72 h, 0.00610352 uM", "setting": "[2]; conc 0.00610352 uM, raw data (replicates)", "result": 34.9, "unit": "%"}, {"measurement": "viability at 72 h, 0.012207 uM", "setting": "[2]; conc 0.012207 uM, raw data (replicates)", "result": 28.9, "unit": "%"}, {"measurement": "viability at 72 h, 0.0244141 uM", "setting": "[2]; conc 0.0244141 uM, raw data (replicates)", "result": 30.6, "unit": "%"}, {"measurement": "viability at 72 h, 0.0488281 uM", "setting": "[2]; conc 0.0488281 uM, raw data (replicates)", "result": 25.7, "unit": "%"}, {"measurement": "viability at 72 h, 0.0976562 uM", "setting": "[2]; conc 0.0976562 uM, raw data (replicates)", "result": 24, "unit": "%"}, {"measurement": "viability at 72 h, 0.195312 uM", "setting": "[2]; conc 0.195312 uM, raw data (replicates)", "result": 24.3, "unit": "%"}, {"measurement": "viability at 72 h, 0.390625 uM", "setting": "[2]; conc 0.390625 uM, raw data (replicates)", "result": 25.2, "unit": "%"}, {"measurement": "viability at 72 h, 0.78125 uM", "setting": "[2]; conc 0.78125 uM, raw data (replicates)", "result": 22.1, "unit": "%"}, {"measurement": "viability at 72 h, 1.5625 uM", "setting": "[2]; conc 1.5625 uM, raw data (replicates)", "result": 21.9, "unit": "%"}, {"measurement": "viability at 72 h, 3.125 uM", "setting": "[2]; conc 3.125 uM, raw data (replicates)", "result": 20.3, "unit": "%"}, {"measurement": "viability at 72 h, 6.25 uM", "setting": "[2]; conc 6.25 uM, raw data (replicates)", "result": 20.4, "unit": "%"}, {"measurement": "viability at 72 h, 12.5 uM", "setting": "[2]; conc 12.5 uM, raw data (replicates)", "result": 11.9, "unit": "%"}, {"measurement": "viability at 72 h, 25 uM", "setting": "[2]; conc 25 uM, raw data (replicates)", "result": 2, "unit": "%"}, {"measurement": "viability at 72 h, 50 uM", "setting": "[2]; conc 50 uM, raw data (replicates)", "result": 0.248, "unit": "%"}, {"measurement": "SKOV3 viability (%)", "setting": "[3]; conc 9.53674e-5 uM", "result": "103.5% and 99.3%"}, {"measurement": "SKOV3 viability (%)", "setting": "[3]; conc 0.000190735 uM", "result": "92.3% and 95.8%"}, {"measurement": "SKOV3 viability (%)", "setting": "[3]; conc 0.00038147 uM", "result": "95.4% and 93.0%"}, {"measurement": "SKOV3 viability (%)", "setting": "[3]; conc 0.000762939 uM", "result": "86.5% and 80.1%"}, {"measurement": "SKOV3 viability (%)", "setting": "[3]; conc 0.00152588 uM", "result": "73.2% and 83.0%"}, {"measurement": "SKOV3 viability (%)", "setting": "[3]; conc 0.00305176 uM", "result": "64.2% and 71.1%"}, {"measurement": "SKOV3 viability (%)", "setting": "[3]; conc 0.00610352 uM", "result": "65.5% and 65.6%"}, {"measurement": "SKOV3 viability (%)", "setting": "[3]; conc 0.012207 uM", "result": "60.5% and 55.5%"}, {"measurement": "SKOV3 viability (%)", "setting": "[3]; conc 0.0244141 uM", "result": "61.8% and 57.1%"}, {"measurement": "SKOV3 viability (%)", "setting": "[3]; conc 0.0488281 uM", "result": "55.9% and 56.4%"}, {"measurement": "SKOV3 viability (%)", "setting": "[3]; conc 0.0976562 uM", "result": "56.0% and 58.1%"}, {"measurement": "SKOV3 viability (%)", "setting": "[3]; conc 0.195312 uM", "result": "52.7% and 56.6%"}, {"measurement": "SKOV3 viability (%)", "setting": "[3]; conc 0.390625 uM", "result": "55.9% and 59.7%"}, {"measurement": "SKOV3 viability (%)", "setting": "[3]; conc 0.78125 uM", "result": "59.7% and 56.2%"}, {"measurement": "SKOV3 viability (%)", "setting": "[3]; conc 1.5625 uM", "result": "58.0% and 59.2%"}, {"measurement": "SKOV3 viability (%)", "setting": "[3]; conc 3.125 uM", "result": "56.1% and 56.8%"}, {"measurement": "SKOV3 viability (%)", "setting": "[3]; conc 12.5 uM", "result": "53.9% and 55.3%"}, {"measurement": "SKOV3 viability (%)", "setting": "[3]; conc 25 uM", "result": "51.8% and 53.0%"}, {"measurement": "SKOV3 viability (%)", "setting": "[3]; conc 50 uM", "result": "34.7% and 38.6%"}, {"measurement": "viability at 72 h", "setting": "[4]", "result": "~60", "unit": "%"}]}
